Test results: patent US11679107B2 (Eisai R&D Management Co., Ltd., priority 2018, dated 2023)
Like-named read-outs stand apart in the source and are kept apart here.

Tests used:
[1] = tested on: Ad2 variant pre-mRNAs spliced in HeLa S3 nuclear extracts; assay: In vitro splicing assay (IVS), RT-qPCR of spliced product; format: biochemical; conditions: geometric mean
Summary of the method: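 Read-out is one-step TaqMan RT-qPCR of spliced Ad2 mRNA with Ftz as reference, normalized to DMSO and fit by non-linear regression. Reactions held HeLa S3 nuclear extract, 2 ng Ad2-derived pre-mRNA and test compound, with 15 min preincubation. Splicing was started with ATP-containing activation buffer and run 90 min at 30 °C.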

SF3b complexes = biological target: T1, SF3b complexes (Homo sapiens, UniProt O75533+Q7RTV0); assay: Scintillation proximity assay (SPA) with [3H]-labelled pladienolide probe; format: binding; conditions: SF3B1 (WT); geometric mean; read-out: SPA-ATS GMean IC50 (nM) SF3B1 (WT)
T1 construct: endogenous in cells; host or cells: Nuclear extracts; A HeLa S3 extract preparation is described for the in vitro splicing assay
Summary of the method: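 SF3b complexes captured from nuclear extracts on anti-SF3B1 antibody SPA beads; test compounds pre-incubated 30 min before 2.5 nM [3H]-pladienolide probe added, then 30 min incubation. Bound probe read by scintillation; values from non-linear regression of concentration–response curves.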

[2] = tested on: NCI-H1568 cells (high MCL1); assay: Cell proliferation and viability, CellTiter-Glo, 72 hours; format: cell-based; conditions: for GI50: geometric mean; for CTGlo-ATS Mean MinResponse % 72 h NCIH1568.1: −100% cidal, 0% static, 100% maximal growth
Summary of the method: (§1)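 ATP luminescence (CellTiter-Glo) was measured 72 h after treatment with compound at 10 μM–100 pM (11 points, half-log) in 0.1% DMSO. The Panc line was grown in RPMI-1640 plus insulin and 15% FBS, the other in 10% FBS. Data were normalised to time zero and vehicle controls, where −100% is cidal and 0% static.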

[3] = tested on: Panc 05.04 cells (SF3b K700E mutant); assay: as above; format: cell-based; conditions: for CTGlo-ATS Mean MinResponse % 72 h PANC0504.1: −100% cidal, 0% static, 100% maximal growth; for GI50: geometric mean
Summary of the method: as §1

[4] = Ad2.1 pre-mRNA substrate, read-out: qPCR-IVS-ATS GMean IC50 (nM) Ad2.1
[5] = Ad2.2 pre-mRNA substrate, read-out: qPCR-IVS-ATS GMean IC50 (nM) Ad2.2
[6] = NCI-H1568, read-out: CTGlo-ATS GMean GI50 (nM) 72 h NCIH1568.1, NCIH1568.1 cells, 72 h
[7] = Panc 05.04, read-out: CTGlo-ATS GMean GI50 (nM) 72 h PANC0504.1, PANC0504.1 cells, 72 h

| SMILES | IC50 [1, 4] | IC50 [1, 5] | IC50 (SF3b complexes) | GI50 [2, 6] | CTGlo-ATS Mean MinResponse % 72 h NCIH1568.1 ([2]; NCIH1568.1 cells, 72 h) | CTGlo-ATS Mean MinResponse % 72 h PANC0504.1 ([3]; PANC0504.1 cells, 72 h) | GI50 [3, 7] | GI50 ([2]; NCI-H1568, 72 h, read-out: CTGlo-ATS GMean GI50 (nM) 72 h NCIH1568.1, NCIH1568.1 cells, 72 h) | GI50 ([3]; Panc 05.04, 72 h, read-out: CTGlo-ATS GMean GI50 (nM) 72 h PANC0504.1, PANC0504.1 cells, 72 h) |
| --- | --- | --- | --- | --- | --- | --- | --- | --- | --- |
| C=CS(=O)(=O)N1CCN(c2cc(F)cc(/C=C(\C)[C@H]3OC(=O)C[C@H](O)CC[C@H](C)[C@@H](OC(=O)N4CCN(C)CC4)/C=C/[C@@H]3C)c2)CC1 [Compound 74] | 34.5 nM | 20.8 nM | 4.88 nM | 4.69 nM | −99.528% | −64.747% | 13.1 nM |  |  |
| C/C(=C\c1cc(F)cc(N2CCOC[C@H]2C)c1)[C@H]1OC(=O)C[C@H](O)CC[C@H](C)[C@@H](OC(=O)N2CCN(C)CC2)/C=C/[C@@H]1C [Compound 75] | 19 nM | 15.4 nM | 2.15 nM | 3.58 nM | −85.064% | −81.995% | 3.69 nM |  |  |
| C/C(=C\c1cc(F)cc(N2CCO[C@H](CO)C2)c1)[C@H]1OC(=O)C[C@H](O)CC[C@H](C)[C@@H](OC(=O)N2CCN(C)CC2)/C=C/[C@@H]1C [Compound 76] | 21.5 nM | 17.7 nM | 4.2 nM |  | −77.948% | −90.504% |  | 3.02 nM | 5.17 nM |
| C/C(=C\c1cc(F)cc(N2CCOC[C@@H]2CO)c1)[C@H]1OC(=O)C[C@H](O)CC[C@H](C)[C@@H](OC(=O)N2CCN(C)CC2)/C=C/[C@@H]1C [Compound 77] | 16.1 nM | 13.3 nM | 1.78 nM | 1.79 nM | −82.189% | −86.524% | 3.9 nM |  |  |
| CNC(=O)[C@H]1CN(c2cc(F)cc(/C=C(\C)[C@H]3OC(=O)C[C@H](O)CC[C@H](C)[C@@H](OC(=O)N4CCN(C)CC4)/C=C/[C@@H]3C)c2)CCO1 [Compound 78] | 24.3 nM | 13.8 nM | 1.76 nM | 2.5 nM | −74.454% | −93.916% | 7.33 nM |  |  |
| C/C(=C\c1cc(F)cc(N2CCOCC2)c1)[C@H]1OC(=O)C[C@H](O)CC[C@H](C)[C@@H](OC(=O)N2CCN3CCCC3C2)/C=C/[C@@H]1C (some centres unmarked) [Compound 82] | 68.6 nM | 28.2 nM | 3.79 nM | 12.2 nM | −60.656% | −88.044% | 8.74 nM |  |  |
| C/C(=C\c1cc(F)cc(N2CCOC[C@@H]2C)c1)[C@H]1OC(=O)C[C@H](O)CC[C@H](C)[C@@H](OC(=O)N2CCN(C)CC2)/C=C/[C@@H]1C [Compound 83] | 159 nM | 49 nM | 4.57 nM | 17.3 nM | −68.447% | −94.723% | 15.6 nM |  |  |
| C/C(=C\c1cc(F)cc(N2CCN(CC(=O)C3CC3)CC2)c1)[C@H]1OC(=O)C[C@H](O)CC[C@H](C)[C@@H](OC(=O)N2CCN(C)CC2)/C=C/[C@@H]1C [Compound 84] | 29.6 nM | 22.1 nM | 2.75 nM | 4.3 nM | −80.428% | −89.010% | 5.61 nM |  |  |
